# Assay results: patent publication US20260226077A1, “TYPE II TOPOISOMERASE INHIBITORS AND METHODS OF MAKING AND USING THEREOF” (Ohio State Innovation Foundation, priority 2023, published 2026)
# Assays:
# [1] = in vivo; cited from earlier work
# [2] = all channels
# Streptococcus pyogenes = experiment: MIC50/90 against Streptococcus pyogenes; format: cell-based
# FQ-R MRSA = experiment: MIC against FQ-R MRSA isolates; format: cell-based, Staphylococcus aureus; settings: n = 15 (147), n = 25 (284, 319, gepotidacin)
# [3] = Mouse microsomal stability; format: in vitro ADME; settings: microsomes, read-out: Mouse microsom. t1/2
# in vitro [4] = settings: mouse, plasma
# Pseudomonas aeruginosa = experiment: MIC50 against Pseudomonas aeruginosa isolates; format: cell-based; settings: n = 8
# [5] = Permeability: MDCK II A->B; format: in vitro ADME; settings: dog
# [6] = tested on: Pseudomonas aeruginosa 27853; experiment: MIC against Pseudomonas aeruginosa 27853; format: cell-based
# physchem = settings: pH 7.4, aqueous buffer, kinetic from dmso stock, Kinetic solubility at pH 7.4-7.5 (μM)
# M121K = experiment: MIC against M121K mutant; format: cell-based
# Escherichia coli = experiment: MIC50 against Escherichia coli isolates; format: cell-based; settings: n = 8
# S. aureus CF isolate = experiment: MIC against S. aureus CF isolate; format: cell-based; settings: Staphylococcus aureus
# Rat microsomal stability = format: in vitro ADME; settings: microsomes, read-out: Rat microsom. t1/2
# K562 = K562 cytotoxicity; format: cell-based; settings: Homo sapiens
# Staphylococcus aureus = experiment: MIC50/90 against Staphylococcus aureus isolates; format: cell-based; settings: n = 30 (147), n = 100 (284, 319, gepotidacin)
# D83N = experiment: MIC against D83N mutant; format: cell-based
# [7] = not given; remark: listed apart in the source
# Streptococcus pneumoniae = experiment: MIC50/90 against Streptococcus pneumoniae; format: cell-based
# [8] = Permeability: CACO-2 A->B; format: in vitro ADME; settings: human, Caco-2
# Streptococcus agalactiae = experiment: MIC50/90 against Streptococcus agalactiae; format: cell-based; settings: Streptococcus agalactiae
# [9] = tested on: Acinetobacter baumannii 19606; experiment: MIC against Acinetobacter baumannii 19606; format: cell-based
# in vitro [10] = settings: rat, plasma
# in vitro [11] = settings: human, plasma
# [12] = Human microsomal stability; format: in vitro ADME; settings: microsomes, read-out: Human microsom. t1/2
# S. aureus 29213 = experiment: MIC against S. aureus 29213; format: cell-based; settings: Staphylococcus aureus
# Dog microsomal stability = format: in vitro ADME; settings: microsomes, read-out: Dog microsom. t1/2
# TopoIV/gyrase = TopoIV/gyrase inhibition ratio; format: biochemical
# Enterococcus spp. = experiment: MIC50/90 against Enterococcus spp.; format: cell-based; settings: n = 10 (147), n = 20 (others)
# S. aureus USA300 = experiment: MIC against S. aureus USA300; format: cell-based; settings: Staphylococcus aureus
# [13] = Monkey microsomal stability; format: in vitro ADME; settings: microsomes, read-out: Monkey microsom. t1/2
# Escherichia coli 25922 = experiment: MIC against Escherichia coli 25922; format: cell-based; settings: Escherichia coli, 25922
compound,measurement,setting,value
NXL-101,QT-prolongation in clinical studies,[1],withdrawn from clinical studies as a result of QT-prolongation
"O=C1COc2ncc(CN[C@H]3CO[C@H](CC4Cn5c(=O)ccc6ccc(F)c4c65)OC3)nc2N1 (stereo partly drawn) [Compound 319, 6-(((2-((9-fluoro-4-oxo-1,2-dihydro-4H-pyrrolo[3,2,1-ij]quinolin-1-yl)methyl)-trans-1,3-dioxan-5-yl)amino)methyl)-2H-pyrazino[2,3-b][1,4]oxazin-3(4H)-one]","Comprehensive in vitro proarrhythmia assay at 100 μM, inhibition",[2],All <25%
same,Human plasma protein binding (% unbound),,23 % unbound
same,MIC50,"Streptococcus pyogenes; n = 5 (147), n = 10 (others)",2 µg/mL
same,MIC90,Streptococcus pyogenes; n = 10,8 µg/mL
same,MIC90,"FQ-R MRSA; Staphylococcus aureus, MRSA",0.5 µg/mL
same,FQ-R MRSA MIC90 (μg/mL),FQ-R MRSA,0.5/0.5 μg/mL
same,half-life,[3],5.78 h
same,half-life,in vitro [4],> 4 h
same,MIC50,Pseudomonas aeruginosa,16 µg/mL
same,Papp A→B,[5],1.96 ×10⁻⁶ cm/s
same,MIC,[6],64 µg/mL
same,solubility kinetic,physchem,25 µM
same,MIC,M121K,4 µg/mL
same,MIC50,Escherichia coli,16 µg/mL
same,MIC,S. aureus CF isolate,0.25 µg/mL
same,half-life,Rat microsomal stability,> 2 h
same,IC50,K562,135 µM
same,MIC50,Staphylococcus aureus,0.5 µg/mL
same,MIC90,Staphylococcus aureus,1 µg/mL
same,MIC,D83N,4 µg/mL
same,Mouse plasma protein binding (% unbound),[7],27 % unbound
same,MIC50,"Streptococcus pneumoniae; n = 5 (147), n = 10 (others)",1 µg/mL
same,MIC90,Streptococcus pneumoniae; n = 10,2 µg/mL
same,Papp A→B,[8],0.8 ×10⁻⁶ cm/s
same,MIC50,"Streptococcus agalactiae; n = 5 (147), n = 10 (others)",16 µg/mL
same,MIC90,Streptococcus agalactiae; n = 10,32 µg/mL
same,MIC,[9],16 µg/mL
same,half-life,in vitro [10],> 4 h
same,half-life,in vitro [11],2.18 h
same,half-life,[12],> 2 h
same,MIC,S. aureus 29213,0.5 µg/mL
same,half-life,Dog microsomal stability,> 2 h
same,TopoIV/gyrase ratio,TopoIV/gyrase,0.65
same,MIC50,Enterococcus spp.,4 µg/mL
same,MIC90,Enterococcus spp.,8 µg/mL
same,MIC,S. aureus USA300,0.5 µg/mL
same,half-life,[13],> 2 h
same,MIC,Escherichia coli 25922,16 µg/mL
